Data: patent US8852648B2, “Delivery of biologically-active agents using volatile, hydrophobic solvents” (Rochal Industries, LLP, priority 2012, dated 2014)
“Also recorded” adds a separate entry of the source. Structures can show the parent of a compound that is named as a salt. Where two headings read alike, the source gives them in different places.

How the values were obtained:
[1] = test system: Candida albicans, ATCC 10231; test: Zone of inhibition, antimicrobials in AOT and Cavilon, TSA plates; type: cell-based; conditions: for ZOI 24 h / ZOI 48 h / ZOI 72 h: agent with AOT in Cavilon polymer, HMDS/ISO, 0.1 mL per cylinder, Roccal 1 %
Experimental: (§1) All microbiological testing was done by INCELL Corporation, San Antonio, Tex. All zones of inhibition data were measured in mm.
The zones of inhibition testing was also performed with Candida albicans, purchased from ATCC and expanded in Tryptic soy broth overnight. This fungi culture was diluted to 0.1 OD 600 units and spread onto TSA plates. Sterile cloning cylinders were placed on the TSA plates, charged with the biologically-active agent in a volatile, hydrophobic solvent (0.1 mL per cylinder) and allowed to air dry for 1 h at room temperature. A 1% Roccal solution was used as a positive control. The TSA plates were observed and photographed after 24 h, 48 h, and 72 h. Images were used to measure zone of inhibition or areas of clearing surrounding the delivered material.
(§2) The polymer substrate chosen for the sustained release studies of biologically-active antimicrobial over time was Cavilon. The Cavilon solution is composed of a proprietary acrylate polymer and a smaller amount of polyphenylmethylsiloxane in HMDS and ISO. This was used as a negative control for all zone of inhibition studies (Tables 8-10).

[2] = in water; cited from earlier work
[3] = test system: Pseudomonas aeruginosa, ATCC 27853; test: Zone of inhibition, antimicrobials in AOT and Cavilon, TSA plates; type: cell-based; conditions: for ZOI 24 h / ZOI 48 h / ZOI 72 h: agent with AOT in Cavilon polymer, HMDS/ISO, 0.1 mL per cylinder, Neosporin 100 μL; for ZOI behaviour in words: with AOT in Cavilon polymer, over three days
Experimental: as §1
(§3) The zones of inhibition testing for methicillin-resistant Staphylococcus aureus and Pseudomonas aeruginosa were performed as described below. The bacteria were purchased from ATCC and expanded in Tryptic soy broth overnight. Each of the bacteria cultures was then spread onto Tryptic soy agar (TSA) plates. Sterile cloning cylinders containing the biologically-active agent in a volatile, hydrophobic solvent (0.1 mL per cylinder) were placed on the TSA plates and allowed to air dry for 1 h at room temperature. Neosporin was used as a positive control. The TSA plates were observed and photographed after 24 h, 48 h, and 72 h. Images were used to measure zone of inhibition or areas of clearing surrounding the delivered material.
as §2

[4] = test system: methicillin-resistant Staphylococcus aureus, ATCC 700787; test: as above; type: cell-based
Experimental: as §1, §3, §2

[5] = test system: L929 mouse fibroblast cell; test: Cytotoxicity testing, agar overlay with neutral red; conditions: for Zone Size / Grade (biological reactivity): 0.05 wt % AOT in Cavilon; for Zone Size: applied to agar surface; for Grade (biological reactivity): scale Grade 0 to Grade 4
Experimental: Also of consideration for application to animal and human skin is the potential of toxicity to mammalian cells for reverse emulsion surfactants such as AOT. […] […] Cavilon solution without AOT was used as a negative control.
The biological reactivity of L929 mouse fibroblast cell in response to the AOT Cavilon solution was determined. The monolayer of fibroblasts was cultured in an agar plate, and the cell viability was evaluated using a vital dye (neutral red). The AOT Cavilon solution was applied directly to the surface of the agar. Positive (Buna-N-Rubber) and negative (Negative Control Plastic, Cavilon solution) control articles were prepared to verify the proper functioning of the test system. The cultures were incubated at 37±1° C., in a humidified atmosphere containing 5±1% carbon dioxide. Zone of inhibition was measured, and biological reactivity (cellular degeneration and malformation) was rated on a scale from Grade 0 (No reactivity) to Grade 4 (Severe reactivity) at 24 and 48 hours. The experiment was run in triplicate.

[6] = test system: albino rabbits; test: Animal skin-irritation study, Draize scoring; type: in vivo, rabbit; conditions: Cavilon solution containing 0.5 wt % AOT
Experimental: Another concern with the use of a reverse emulsion surfactant for its application to mammalian skin is its potential to cause skin irritation. It has been reported that in water solution AOT can be irritating to skin (M. Changez and M. Varshney, Drug Development and Industrial Pharmacy, 26(5), 507-512 (2000)). To test if AOT is skin-irritating when used in a volatile, hydrophobic solvent with the presence of polymer, an animal skin-irritation study was conducted by Toxikon Corporation, Cavilon solution containing 0.5 wt % AOT was examined, and Cavilon solution was used as a negative control.
Three albino rabbits were used for the skin irritation study. The application sites were prepared by clipping the skin of the trunk free of hair within 24 h before application of the test and control substances. The animals were treated by applying an AOT-containing Cavilon solution and the Cavilon negative control (0.5 mL) directly onto skin over a skin area of approximate 6 cm^2. The test solution was applied to the skin on the left side of the spine and the control solution was applied to the skin on the right side of the spine. The AOT solution and the negative control were each applied sequentially to three sites, and observed at 6, 24, 48, and 72 h for signs of erythema and edema. Observations were scored according to the Draize Scale for Scoring. […]

[7] = test system: Gram positive bacteria such as Staphylococcus aureus; conditions: reported, G. N. Kern; cited from earlier work
[8] = test system: Gram negative bacteria such as Pseudomonas aeruginosa; conditions: reported, G. N. Kern; cited from earlier work
[9] = test system: Candida albicans; conditions: reported, G. N. Kern; cited from earlier work
[10] = test system: mammalian cells such as fibroblasts, kidney cells, and cancer cells; conditions: in water solution; cited from earlier work
[11] = in water solution; cited from earlier work
[12] = Solubility in non-polar hydrophobic solvents ISO and HMDS; type: physicochemical; conditions: without reverse emulsion surfactant
Description: For all formulations in the following Examples, each biologically-active agent was inherently insoluble in the non-polar, hydrophobic solvents tested, namely, isooctane (ISO) and hexamethyldisiloxane (HMDS). Solubility occurred in the presence of a reverse emulsion surfactant, with or without the presence of added water, to give optically clear, homogeneous solutions. Since the concentrations of the biologically-active agents (Active) were considerably less than that of the solvent used, the data in the Tables pertaining to all ingredients were rounded-off to the next highest number.

[13] = with AOT in Cavilon polymer, over three days
[14] = 24 h, agent with AOT in Cavilon polymer, HMDS/ISO, 0.1 mL per cylinder, Neosporin 100 μL
[15] = 48 h, agent with AOT in Cavilon polymer, HMDS/ISO, 0.1 mL per cylinder, Neosporin 100 μL
[16] = 72 h, agent with AOT in Cavilon polymer, HMDS/ISO, 0.1 mL per cylinder, Neosporin 100 μL

Clc1ccc(COC(Cn2ccnc2)c2ccc(Cl)cc2Cl)c(Cl)c1 (stereo not shown) [MICON, Miconazole Nitrate]
ZOI 24 h [1]: 16.5 mm
ZOI 48 h [1]: 14.9 mm
ZOI 72 h [1]: 15 mm
ZOI behaviour in words [1, 13]: superior to that of AOT by itself and PHMB with AOT

CCCCC(CC)CNC(=N)NC(=N)NCCCCCCNC(=N)NC(=N)NCC(CC)CCCC (stereo not shown) [ALEX, 1,1′-hexamethylenebis[5-(2-ethylhexyl)biguanide]dihydrochloride]
water solubility [2]: 0.1%

CCCCC(CC)COC(=O)CC(C(=O)OCC(CC)CCCC)S(=O)(=O)[O-].[Na+] (stereo not shown) [AOT, sodium bis(2-ethylhexyl)sulfosuccinate]
ZOI 24 h [3]: 8.18 mm
ZOI 48 h [3]: 8.22 mm
ZOI 72 h [3]: 11.2 mm
ZOI behaviour in words [3]: considerably more effective against Pseudomonas aeruginosa than Neosporin; also recorded: highly effective
ZOI 24 h [4]: 5.34 mm
ZOI 48 h [4]: 6.3 mm
ZOI 72 h [4]: 5.32 mm
ZOI behaviour in words [4]: active
ZOI 24 h [1]: 12.7 mm
ZOI 48 h [1]: 12.4 mm
ZOI 72 h [1]: 13.3 mm
Zone Size ([5]; 24 hours): 0 cm
Grade (biological reactivity) ([5]; 24 hours): 0
Zone Size ([5]; 48 hours): 0 cm
Grade (biological reactivity) ([5]; 48 hours): 0
toxicity to mammalian cells, in words ([5]; AOT Cavilon solution, 0.5 wt % AOT): not toxic
signs of erythema or edema ([6]; 0.5 mL on skin, observed at 6, 24, 48, and 72 h): None of the AOT solution sites presented any signs of erythema or edema
skin irritation classification ([6]; Draize Scale): non-irritant
antibacterial activity, in words [7]: active
antibacterial activity, in words [8]: inactive
antifungal activity, in words [9]: effective
cytotoxic concentration [10]: 0.002 wt %
skin irritation, in words [11]: irritating

O=[N+]([O-])[O-].[Ag+] [AgNO3, Silver Nitrate]
ZOI 24 h [4, 14]: 8.16 mm
ZOI 48 h [4, 15]: 9 mm
ZOI 72 h [4, 16]: 8.18 mm
ZOI behaviour in words [4, 13]: highly effective

CCCCCCCCCCCC(=O)[O-].[Na+] [SL, sodium dodecanoate]
solubility in isooctane (ISO) and hexamethyldisiloxane (HMDS) [12]: insoluble

N=C(NCCCCCCNC(=N)NC(=N)Nc1ccc(Cl)cc1)NC(=N)Nc1ccc(Cl)cc1.O=C(O)[C@H](O)[C@@H](O)[C@H](O)[C@H](O)CO.O=C(O)[C@H](O)[C@@H](O)[C@H](O)[C@H](O)CO [CHG, Chlorhexidine Digluconate]
ZOI 24 h [3]: 2.77 mm
ZOI 48 h [3]: 0 mm
ZOI 72 h [3]: 0 mm
ZOI behaviour in words [3]: less effective
ZOI 24 h [4, 14]: 11.53 mm
ZOI 48 h [4, 15]: 11.03 mm
ZOI 72 h [4, 16]: 11.67 mm
ZOI behaviour in words [4, 13]: exceptional results
water solubility [2]: 20%

NC[C@@H]1O[C@H](O[C@@H]2[C@@H](CO)OC(O[C@@H]3[C@@H](O)[C@H](N)C[C@H](N)[C@H]3OC3O[C@H](CN)[C@@H](O)[C@H](O)[C@H]3N)[C@@H]2O)[C@H](N)[C@@H](O)[C@@H]1O (stereo partly shown) [NEO, Neomycin Trisulfate]
ZOI 24 h [3]: 7.43 mm
ZOI 48 h [3]: 6.41 mm
ZOI 72 h [3]: 7.61 mm
ZOI 24 h [4, 14]: 8.95 mm
ZOI 48 h [4, 15]: 8.94 mm
ZOI 72 h [4, 16]: 9.71 mm
ZOI behaviour in words [4, 13]: highly effective
